Test results as given in patent US20150297652A1, “COMPOSITIONS AND METHODS FOR THEIR DERMATOLOGICAL USE” (VITA NATURALE, LLC, priority 2012, published 2015).

What was measured:
chronic scalp dermatitis = test: Topical treatment of chronic scalp dermatitis (Subject 3); type: in vivo, human; details: past treatment of the scalp with clobetasol 0.05% solution
Experimental: (§1) A topical composition of the present invention, referred to herein as Composition 1, comprising as active ingredients Albizzia lebbeck (1%), schisandra chinensis (0.1%), and ophiopogon japonicus (2%), as well as petrolatum, water, glycerin, sodium hyaluronate, dimethicone, glyceryl stearate, acrylates, disodium EDTA, capric triglyceride, propanediol, phenoxyethanol, and triethanolamine, was prepared and administered to subjects as follows:
Subject 3 suffered from chronic scalp dermatitis characterized by persistent severe itching and scaling of the scalp. […] Untreated areas were persistently itchy and scaly.

chronic eyelid eczema = test: Topical treatment of chronic eyelid eczema (Subject 1); type: in vivo, human; details: previously treated with emollients and hydrocortisone
Experimental: as §1, with “follows: Subject 1 suffered from chronic eyelid eczema characterized by persistent severe itching and scaling of the eyelids.” for “follows:”

Row | Compound | adverse side effects (chronic scalp dermatitis) | improvement with previous treatment (chronic eyelid eczema)
1 | C[C@H]1C[C@H]2[C@@H]3CCC4=CC(=O)C=C[C@]4(C)[C@@]3(F)[C@@H](O)C[C@]2(C)[C@@]1(O)C(=O)CCl [clobetasol] | adverse side effects including acne and skin atrophy | 
2 | C[C@]12CCC(=O)C=C1CC[C@@H]1[C@@H]2[C@@H](O)C[C@@]2(C)[C@H]1CC[C@]2(O)C(=O)CO [hydrocortisone] |  | minimal improvement
